Laboratory results reported in article PMC8449414, “Rational design of ASCT2 inhibitors using an integrated experimental-computational approach” (Proceedings of the National Academy of Sciences of the …, 2021).

Target: T1, rASCT2 (Rattus norvegicus, UniProt D3ZJ25)
T1 construct: expressed in transfected cells; host or cells: HEK293 (ATCC CRL-11268), transient transfection
T1 sequence (D3ZJ25 1-555): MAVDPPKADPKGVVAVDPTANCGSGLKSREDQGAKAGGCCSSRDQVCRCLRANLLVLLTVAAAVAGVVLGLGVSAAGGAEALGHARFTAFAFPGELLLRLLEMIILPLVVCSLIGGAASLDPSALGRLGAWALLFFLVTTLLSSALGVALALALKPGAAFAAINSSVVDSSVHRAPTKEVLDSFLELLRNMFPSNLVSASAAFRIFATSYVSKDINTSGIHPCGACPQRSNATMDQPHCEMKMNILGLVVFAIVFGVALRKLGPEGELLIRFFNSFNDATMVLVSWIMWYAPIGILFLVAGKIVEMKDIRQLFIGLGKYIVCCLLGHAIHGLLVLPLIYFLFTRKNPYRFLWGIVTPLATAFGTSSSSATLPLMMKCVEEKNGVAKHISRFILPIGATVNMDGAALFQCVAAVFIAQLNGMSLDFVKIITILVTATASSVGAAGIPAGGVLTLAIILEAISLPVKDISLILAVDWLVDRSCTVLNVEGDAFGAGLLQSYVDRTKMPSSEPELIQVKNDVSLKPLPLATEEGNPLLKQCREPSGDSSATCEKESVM
Experiment: Inhibitor dissociation kinetics by ligand displacement with alanine (rapid solution exchange)
Format: cell-based
Procedure: Fig. 2. […] (A) Electrophysiological recordings obtained after application of alanine (red trace) and increasing concentrations of Lc-BPE (black traces). The times of application of alanine or Lc-BPE are shown by a gray bar (top). (B and C) Lc-BPE inhibitor dose–response relationships for rASCT2 and hASCT2, respectively. […] Currents were normalized to the current recorded after application of 10 µM inhibitor concentration. (D) Inhibition of glutamine uptake (5 µM external concentration) in the presence of varying concentration of Lc-BPE and 5 µM glutamine measured in proteoliposomes reconstituted with purified hASCT2. […] Errors bars represent SEM from at least two biologically independent measurements. (E) Current recorded after rapid solution exchange from extracellular buffer (control, gray bar, black trace) to a solution containing buffer + 5 mM alanine (white bar). For the red trace, the cell was preincubated with 10 µM Lc-BPE (red bar, red trace) followed by rapid application of 5 mM alanine. All current recordings were performed at 0 mV in the presence of 130 mM NaSCN internal and 140 mM NaCl external (homoexchange) solutions. […]
To test this, we measured the dissociation kinetics of Lc-BPE using a ligand displacement approach. First, rASCT2-expressing cells were preincubated with a saturating solution of Lc-BPE (10 µM), and subsequently the inhibitor was displaced using a supersaturating concentration of the substrate L-alanine (5 mM) (Fig. 2 E and F).

[1] = preincubation with 10 µM inhibitor, displaced with 5 mM alanine

Q: How did the “slowing of activation of the anion current by alanine after preincubation” value (10 µM inhibitor preincubation, 5 mM alanine) turn out when O=C(O[C@@H]1CN[C@H](C(=O)O)C1)c1ccc(-c2ccccc2)cc1 [Lc-BPE, L-cis hydroxyproline biphenyl ester] was run?
A: Its value is “more than sixfold”.

Q: What about the “rate constant kobs, mean (single-exponential fit)” value (preapplied 10 µM inhibitor followed by 5 mM alanine, 0 mV) of the same compound?
A: The value was 4.9 ± 0.2 s⁻¹.

Q: And the “rate constant for dissociation” value [1]?
A: The value was 2.16 s⁻¹.

Q: And the “residence time in the rASCT2 binding site” value [1]?
A: Its value is about 500 ms.
